{"source": "patent US6458781B1", "about": "“Substituted diarylalkyl amides as calcium channel antagonists” (priority 1998, dated 2002)", "key": {"[1]": {"biological_target": "T1, N-type calcium channels in IMR-32 cells (Homo sapiens, UniProt Q00975)", "T1 construct": "host or cells: IMR-32 cells differentiated with dibutyryl cAMP and bromodeoxyuridine", "T1 sequence (Q00975 whole entry)": "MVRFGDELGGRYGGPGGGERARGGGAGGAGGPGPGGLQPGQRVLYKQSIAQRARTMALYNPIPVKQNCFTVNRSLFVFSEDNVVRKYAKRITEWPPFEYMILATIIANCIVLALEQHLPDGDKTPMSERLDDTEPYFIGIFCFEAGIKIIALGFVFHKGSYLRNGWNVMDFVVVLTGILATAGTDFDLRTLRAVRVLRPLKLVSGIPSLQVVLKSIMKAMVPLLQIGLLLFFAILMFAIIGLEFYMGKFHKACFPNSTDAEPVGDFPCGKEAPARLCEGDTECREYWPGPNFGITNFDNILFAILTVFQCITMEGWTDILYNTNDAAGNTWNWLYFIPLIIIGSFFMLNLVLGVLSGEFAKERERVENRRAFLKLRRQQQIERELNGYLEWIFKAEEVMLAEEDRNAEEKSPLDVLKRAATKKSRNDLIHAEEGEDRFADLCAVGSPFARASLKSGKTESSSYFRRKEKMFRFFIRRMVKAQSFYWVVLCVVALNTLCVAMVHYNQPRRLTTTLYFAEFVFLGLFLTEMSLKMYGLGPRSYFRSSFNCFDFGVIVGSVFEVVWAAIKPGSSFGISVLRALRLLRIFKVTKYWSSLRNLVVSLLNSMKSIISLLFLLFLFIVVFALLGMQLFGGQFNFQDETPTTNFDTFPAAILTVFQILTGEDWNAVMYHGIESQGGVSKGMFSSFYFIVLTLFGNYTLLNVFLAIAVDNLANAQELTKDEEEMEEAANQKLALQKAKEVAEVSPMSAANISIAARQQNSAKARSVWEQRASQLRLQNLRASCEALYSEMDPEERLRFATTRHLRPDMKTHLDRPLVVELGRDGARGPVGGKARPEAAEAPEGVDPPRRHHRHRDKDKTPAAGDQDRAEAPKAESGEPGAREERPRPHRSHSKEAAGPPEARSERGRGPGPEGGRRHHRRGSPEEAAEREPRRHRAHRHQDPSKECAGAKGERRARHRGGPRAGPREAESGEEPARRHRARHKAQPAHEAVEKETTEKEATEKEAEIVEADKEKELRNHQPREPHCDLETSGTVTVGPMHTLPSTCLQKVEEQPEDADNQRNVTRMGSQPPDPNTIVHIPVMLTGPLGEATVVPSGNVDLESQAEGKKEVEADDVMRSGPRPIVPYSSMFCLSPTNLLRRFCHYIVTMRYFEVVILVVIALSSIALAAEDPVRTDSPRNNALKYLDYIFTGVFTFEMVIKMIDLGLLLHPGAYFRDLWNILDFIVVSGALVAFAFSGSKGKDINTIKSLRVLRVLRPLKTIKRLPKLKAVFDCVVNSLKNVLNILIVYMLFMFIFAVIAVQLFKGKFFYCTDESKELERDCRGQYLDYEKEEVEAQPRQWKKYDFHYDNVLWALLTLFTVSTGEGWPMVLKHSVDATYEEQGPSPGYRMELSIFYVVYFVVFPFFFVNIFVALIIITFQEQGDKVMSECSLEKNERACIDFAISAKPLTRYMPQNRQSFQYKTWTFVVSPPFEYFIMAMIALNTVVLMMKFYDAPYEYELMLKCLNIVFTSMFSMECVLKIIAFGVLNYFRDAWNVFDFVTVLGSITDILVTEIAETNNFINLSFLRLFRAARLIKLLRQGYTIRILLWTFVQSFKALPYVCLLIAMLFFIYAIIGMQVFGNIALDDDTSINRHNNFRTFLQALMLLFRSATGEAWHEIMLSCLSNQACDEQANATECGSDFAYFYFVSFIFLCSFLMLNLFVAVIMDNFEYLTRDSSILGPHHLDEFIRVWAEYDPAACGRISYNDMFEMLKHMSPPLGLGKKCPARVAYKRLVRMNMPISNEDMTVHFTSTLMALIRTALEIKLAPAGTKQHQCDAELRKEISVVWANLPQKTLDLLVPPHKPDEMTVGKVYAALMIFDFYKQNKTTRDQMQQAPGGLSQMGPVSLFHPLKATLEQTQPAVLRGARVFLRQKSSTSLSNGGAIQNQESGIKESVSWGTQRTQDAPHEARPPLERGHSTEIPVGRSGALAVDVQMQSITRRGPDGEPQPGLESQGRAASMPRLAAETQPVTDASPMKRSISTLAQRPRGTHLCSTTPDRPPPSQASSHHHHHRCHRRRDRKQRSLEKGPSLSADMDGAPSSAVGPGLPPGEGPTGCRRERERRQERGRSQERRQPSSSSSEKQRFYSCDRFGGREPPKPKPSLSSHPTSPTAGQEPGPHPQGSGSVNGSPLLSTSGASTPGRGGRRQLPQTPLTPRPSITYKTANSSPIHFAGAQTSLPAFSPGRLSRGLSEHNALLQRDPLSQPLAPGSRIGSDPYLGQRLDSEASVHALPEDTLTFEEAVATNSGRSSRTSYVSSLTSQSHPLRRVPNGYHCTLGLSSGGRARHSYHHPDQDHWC", "T1 sequence (P54289 25-956 partner limits assumed)": "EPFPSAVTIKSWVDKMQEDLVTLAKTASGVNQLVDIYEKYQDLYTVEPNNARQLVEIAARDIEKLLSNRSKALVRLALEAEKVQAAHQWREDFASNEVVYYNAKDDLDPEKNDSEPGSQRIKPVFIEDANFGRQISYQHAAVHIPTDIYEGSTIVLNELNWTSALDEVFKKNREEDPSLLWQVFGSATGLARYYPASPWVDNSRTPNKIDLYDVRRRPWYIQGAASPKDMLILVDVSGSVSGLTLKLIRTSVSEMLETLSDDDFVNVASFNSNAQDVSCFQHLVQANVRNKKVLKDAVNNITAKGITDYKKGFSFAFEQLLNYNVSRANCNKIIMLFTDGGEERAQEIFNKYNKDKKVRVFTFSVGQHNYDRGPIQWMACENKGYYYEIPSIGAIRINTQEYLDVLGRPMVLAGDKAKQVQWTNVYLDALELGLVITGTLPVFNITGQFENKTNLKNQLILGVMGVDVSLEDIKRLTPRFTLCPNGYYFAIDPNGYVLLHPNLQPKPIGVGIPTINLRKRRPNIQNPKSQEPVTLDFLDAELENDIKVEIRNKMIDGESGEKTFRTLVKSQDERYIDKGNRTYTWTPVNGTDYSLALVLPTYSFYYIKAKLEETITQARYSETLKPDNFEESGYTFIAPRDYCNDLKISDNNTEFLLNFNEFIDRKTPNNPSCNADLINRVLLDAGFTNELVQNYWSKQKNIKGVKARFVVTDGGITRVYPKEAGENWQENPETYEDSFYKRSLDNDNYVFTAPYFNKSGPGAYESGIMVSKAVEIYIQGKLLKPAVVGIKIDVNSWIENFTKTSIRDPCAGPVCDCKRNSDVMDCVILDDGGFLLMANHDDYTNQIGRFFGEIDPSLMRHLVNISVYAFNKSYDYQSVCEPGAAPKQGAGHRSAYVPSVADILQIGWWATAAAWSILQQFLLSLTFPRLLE", "T1 sequence (P54289 957-1103 partner limits assumed)": "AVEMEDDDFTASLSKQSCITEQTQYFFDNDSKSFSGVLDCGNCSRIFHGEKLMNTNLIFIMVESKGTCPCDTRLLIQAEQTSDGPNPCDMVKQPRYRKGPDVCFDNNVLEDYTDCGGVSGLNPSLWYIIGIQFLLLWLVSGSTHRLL", "T1 sequence (Q02641 whole entry partner)": "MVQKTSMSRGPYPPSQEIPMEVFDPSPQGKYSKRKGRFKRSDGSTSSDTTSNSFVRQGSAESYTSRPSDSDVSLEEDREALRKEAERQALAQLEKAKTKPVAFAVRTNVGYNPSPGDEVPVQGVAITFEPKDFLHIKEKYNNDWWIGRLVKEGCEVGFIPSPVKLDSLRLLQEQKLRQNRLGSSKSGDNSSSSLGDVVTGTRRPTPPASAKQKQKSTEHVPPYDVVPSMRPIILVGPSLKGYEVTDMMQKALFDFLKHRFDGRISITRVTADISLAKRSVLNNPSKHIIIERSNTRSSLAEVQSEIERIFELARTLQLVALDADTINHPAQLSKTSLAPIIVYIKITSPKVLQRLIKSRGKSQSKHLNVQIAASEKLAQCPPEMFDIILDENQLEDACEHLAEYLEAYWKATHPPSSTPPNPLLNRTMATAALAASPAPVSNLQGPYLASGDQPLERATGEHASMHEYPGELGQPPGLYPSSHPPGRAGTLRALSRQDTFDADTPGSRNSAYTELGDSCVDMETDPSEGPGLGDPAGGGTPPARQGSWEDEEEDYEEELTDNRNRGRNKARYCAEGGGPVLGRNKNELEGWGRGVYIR", "test": "N-type Ca2+ channel blocking potency in IMR-32 cells using Indo-1", "type": "cell-based", "settings": "IMR-32 cells, 5 μM nitrendipine present; read-out: IMR32 IC50", "experimental": "Measurement of N-type Ca^2+ Channel Blocking Potencies of Compounds in IMR-32 Cells Using the Fluorescent Ca^2+ Indicator Indo-1\nIMR-32 cells are a human tumoral cell line of neural origin. […] Calcium flux into these cells may be induced by stimulation with elevated potassium concentrations. The L-channel component of calcium flux may be blocked by adding 5 μM nitrendipine. The remaining component of calcium entry into the IMR-32 cells is due to calcium flux through N-type calcium channels. Intracellular calcium concentrations are measured using the fluorescent calcium indicator Indo-1. The effect of drug concentration on calcium uptake is studied.\nThe IMR-32 cell line was obtained from the American Type Culture Collection (Rockville, Md.). Cells were grown in Eagle's Minimum Essential Medium with Earle's salts supplemented with 10% fetal bovine serum, 2 mM L-Gln and antibiotic/antimycotic mixture (Gibco). At approximately 80% confluency, differentiation was induced by the addition of 1 mM dibutyryl cAMP and 2.5 μM bromodeoxyuridine to the medium. After 7 to 13 days of differentiation, cells were detached using 0.5 mM EDTA and loaded with 5 μM Indo-1 acetoxymethyl ester (Molecular Probes, Eugene, Oreg.) at 30° C. for 45 minutes. Loaded cells were washed twice, resuspended (˜10^7 cells/mL) in assay buffer (10 mM HEPES/Tris pH 7.4 in Hank's Balanced Salt Solution without bicarbonate or phenol red containing 0.5% bovine serum albumin) and kept on ice until use. Fluorescence measurements were carried out in a Photon Technology International (PTI, South Brunswick, N.J.) Model RF-F3004 spectrofluorometer with dual emission monochromators using excitation at 350 nm and emission at 400 and 490 nm. The instrument was equipped with a thermostated cuvette holder with stirring capabilities as well as with a computer-controlled pump which allowed for reagent addition during measurement. Instrument control and data collection was done by PTI's OSCAR software running on an IBM compatible computer. Different concentrations of the test compounds (60 μL in dimethyl sulfoxide) were added to 5.94 mL of assay buffer containing approximately 3×10^6 loaded cells, and 5 μM Nitrendipine (in 30 μL EtOH) to block L-type Ca^2+ channels. Samples were incubated for 10 minutes at 30° C. and the aliquot into three 10×10 mm disposable acrylic cuvettes. Emission signals at 400 and 490 nm were acquired from each cuvette at 30° C. for 50 seconds. At 20 seconds after the start of reading, cells were depolarized by the addition of 160 μL of stimulation solution (1 M KCl, 68 mM CaCl2) to the cuvette via the computer-controlled pump. Ratio of dual emission signals (400/490 nm), which is proportional to intracellular Ca^2+ concentration, was plotted against time, and the difference between maximal response after stimulation and basal value (before stimulation) was determined. Values obtained in this way were plotted as a function of drug concentration. IC50 values of test compounds were calculated by fitting a four-parameter logistic function to the data using the least squares method."}}, "note": "Where a name gives a salt, the structure may show the parent alone.", "data": [{"molecule": "CC(C)=CCN(C)[C@@H](CC(C)C)C(=O)NCCCC(c1ccc(F)cc1)c1ccc(F)cc1", "note": "(as salt: hydrochloride) [Example 13, (S)-4-Methyl-2-[methyl-(3-methyl-but-2-enyl)-amino]-pentanoic acid [4,4-bis-(4-fluoro-phenyl)-butyl]-amide monohydrochloride]", "values": [{"measurement": "melting point", "value": "55 to 68", "unit": "°C"}]}, {"molecule": "CC(C)C[C@H](NC(C)C)C(=O)NCCCC(c1ccc(F)cc1)c1ccc(F)cc1", "note": "(as salt: hydrochloride) [Example 19, (S)-2-Isopropylamino-4-methyl-pentanoic acid [4,4-bis-(4-fluoro-phenyl)-butyl]-amide monohydrochloride]", "values": [{"measurement": "melting point", "value": "100 to 103", "unit": "°C"}]}, {"molecule": "CC(C)C[C@@H](C(=O)NCCCC(c1ccc(F)cc1)c1ccc(F)cc1)N(C)C", "note": "(as salt: hydrochloride) [Example 20, (S)-2-Dimethylamino-4-methyl-pentanoic acid [4,4-bis-(4-fluoro-phenyl)-butyl]-amide monohydrochloride]", "values": [{"measurement": "melting point", "value": "60 to 72", "unit": "°C"}]}, {"molecule": "CC(C)C[C@@H](C(=O)NCCCC(c1ccc(F)cc1)c1ccc(F)cc1)N(C)C1CCCCC1", "note": "(as salt: hydrochloride) [Example 21, (S)-2-(Cyclohexyl-methyl-amino)-4-methyl-pentanoic acid [4,4-bis-(4-fluoro-phenyl)-butyl]-amide monohydrochloride]", "values": [{"measurement": "melting point", "value": "73 to 83", "unit": "°C"}]}, {"molecule": "CC(C)C[C@@H](C(=O)NCCCC(c1ccc(F)cc1)c1ccc(F)cc1)N1CCOCC1", "note": "(as salt: hydrochloride) [Example 23, (S)-4-Methyl-2-morpholin-4-yl-pentanoic acid [4,4-bis-(4-fluoro-phenyl)-butyl]-amide monohydrochloride]", "values": [{"measurement": "melting point", "value": "63 to 78", "unit": "°C"}]}, {"molecule": "CC(C)C[C@@H](C(=O)NCCC(c1ccccc1)c1ccccc1)N(C)C1CCCCC1", "note": "(as salt: hydrochloride) [Example 25, (S)-2-(Cyclohexyl-methyl-amino)-4-methyl-pentanoic acid (3,3-diphenyl-propyl)-amide monohydrochloride]", "values": [{"measurement": "melting point", "value": "67 to 86", "unit": "°C"}]}, {"molecule": "CC(C)C[C@@H](C(=O)NCCCC(c1ccc(F)cc1)c1ccc(F)cc1)N(C)C1CCOCC1", "note": "(as salt: hydrochloride) [Example 27, (S)-4-Methyl-2-[methyl-(tetrahydro-pyran-4-yl)-amino]-pentanoic acid [4,4-bis-(4-fluoro-phenyl)-butyl]-amide monohydrochloride]", "values": [{"measurement": "melting point", "value": "75 to 92", "unit": "°C"}]}, {"molecule": "CC(C)C[C@H](NC(C)C)C(=O)N1CCN(C(c2ccc(F)cc2)c2ccc(F)cc2)CC1", "note": "(as salt: hydrochloride) [Example 49, (S)-1-{4-[Bis-(4-fluoro-phenyl)-methyl]-piperazin-1-yl}-2-isopropylamino-4-methyl-pentan-1-one monohydrochloride]", "values": [{"measurement": "melting point", "value": "100 to 103", "unit": "°C"}]}, {"molecule": "CC(C)N[C@H](C(=O)NCCCC(c1ccc(F)cc1)c1ccc(F)cc1)C(C)C", "note": "(as salt: hydrochloride) [Example 65, (S)-N-[4,4-Bis-(4-fluoro-phenyl)-butyl]-2-isopropylamino-3-methyl-butyramide]", "values": [{"measurement": "melting point", "value": "72 to 80", "unit": "°C"}]}, {"molecule": "CCC(C)N[C@H](C(=O)NCCCC(c1ccc(F)cc1)c1ccc(F)cc1)C(C)C", "note": "(stereo partly drawn) (as salt: hydrochloride) [Example 66, (S)-N-[4,4-Bis-(4-fluoro-phenyl)-butyl]-2-sec-butylamino-3-methyl-butyramide]", "values": [{"measurement": "melting point", "value": "77 to 81", "unit": "°C"}]}, {"molecule": "CC(C)C[C@@H](C(=O)NCCCC(c1ccc(F)cc1)c1ccc(F)cc1)N(C)C(C)C", "note": "(as salt: hydrochloride) [Example 68, (S)-2-(Isopropyl-methyl-amino)-4-methyl-pentanoic acid [4,4-bis-(4-fluoro-phenyl)-butyl]-amide]", "values": [{"measurement": "melting point", "value": "155 to 156", "unit": "°C"}]}, {"molecule": "CC(C)[C@@H](C(=O)NCCCC(c1ccc(F)cc1)c1ccc(F)cc1)N(C)C1CCCCC1", "note": "(as salt: hydrochloride) [Example 69, (S)-N-[4,4-Bis-(4-fluoro-phenyl)-butyl]-2-(cyclohexyl-methyl-amino)-3-methyl-butyramide]", "values": [{"measurement": "melting point", "value": "82 to 86", "unit": "°C"}]}, {"molecule": "CC(C)[C@H](NC1CCCCC1)C(=O)NCCCC(c1ccc(F)cc1)c1ccc(F)cc1", "note": "(as salt: hydrochloride) [Example 70, (S)-N-[4,4-Bis-(4-fluoro-phenyl)-butyl]-2-cyclohexylamino-3-methyl-butyramide]", "values": [{"measurement": "melting point", "value": "49 to 53", "unit": "°C"}]}, {"molecule": "CN[C@H](C(=O)NCCCC(c1ccc(F)cc1)c1ccc(F)cc1)C(C)C", "note": "(as salt: hydrochloride) [Example 73, (S)-3-Methyl-2-methylamino-butanoic acid [4,4-bis-(4-fluorophenyl)-butyl]-amide monohydrochloride]", "values": [{"measurement": "melting point", "value": "85 to 90", "unit": "°C"}]}, {"molecule": "CC(C)C[C@H](NC(=O)N1CCCCCC1)C(=O)NCC(c1ccccc1)c1ccccc1", "note": "[Example 4, (S)-Azepane-1-carboxylic acid [1-(2,2-diphenyl-ethylcarbamoyl)-3-methyl-butyl]-amide]", "values": [{"measurement": "melting point", "value": "194 to 195", "unit": "°C"}, {"measurement": "IC50", "setting": "[1]", "value": 3300, "unit": "nM"}]}, {"molecule": "CC(C)C[C@H](NC(=O)N1CCCCCC1)C(=O)NCCC(c1ccccc1)c1ccccc1", "note": "[Example 5, (S)-Azepane-1-carboxylic acid [1-(3,3-diphenyl-propylcarbamoyl)-3-methyl-butyl]-amide]", "values": [{"measurement": "melting point", "value": "144 to 145", "unit": "°C"}, {"measurement": "IC50", "setting": "[1]", "value": 1800, "unit": "nM"}]}, {"molecule": "CC(C)C[C@H](NC(=O)OC(C)(C)C)C(=O)NCCCC(c1ccc(F)cc1)c1ccc(F)cc1", "note": "[Example 6, (S)-{1-[4,4-Bis-(4-fluoro-phenyl)-butylcarbamoyl]-3-methyl-butyl}-carbamic acid tert-butyl ester]", "values": [{"measurement": "melting point", "value": "50 to 55", "unit": "°C"}, {"measurement": "IC50", "setting": "[1]", "value": 1300, "unit": "nM"}]}, {"molecule": "CC(C)C[C@H](NC(=O)N1CCCCCC1)C(=O)NCCCC1(c2ccccc2)C(=O)N(C)c2ccccc21", "note": "(stereo partly drawn) [Example 10, (S)-Azepane-1-carboxylic acid {3-methyl-1-[3-(1-methyl-2-oxo-3-phenyl-2,3-dihydro-1H-indol-3-yl)-propylcarbamoyl]-butyl}-amide]", "values": [{"measurement": "melting point", "value": "181 to 182", "unit": "°C"}, {"measurement": "IC50", "setting": "[1]", "value": 2600, "unit": "nM"}]}, {"molecule": "CC(C)C[C@H](NC(=O)N1CCCCCC1)C(=O)NCc1nn(-c2ccccc2)c2ccccc12", "note": "[Example 11, (S)-Azepane-1-carboxylic acid {3-methyl-1-[(1-phenyl-1H-indazol-3-ylmethyl)-carbamoyl]-butyl}-amide]", "values": [{"measurement": "melting point", "value": "135 to 136", "unit": "°C"}, {"measurement": "IC50", "setting": "[1]", "value": 4000, "unit": "nM"}]}]}
